Values quoted from earlier work, collected in patent US10822355B2, “Ultralow-power near infrared lamp light operable targeted organic nanoparticle photodynamic therapy” (University of Massachusetts, priority 2016, dated 2020).

Legend:
[1] = for ΦΔ (%): literature values (References S2, S6, S7)
[2] = for ε: at 525 nm (B-1), 630 nm (B-2), 661 nm (B-3); for ΦF (%) / ε/10^5 M^−1 cm^−1 / λabs (max) / λem (max): literature values (References S2, S6, S7)

| ε [2] [M⁻¹ cm⁻¹] | ΦF (%) [2] [%] | ε/10^5 M^−1 cm^−1 [2] | λabs (max) [2] | λem (max) [2] | Compound | ΦΔ of reference ([1]; in dichloromethane) | ΦΔ (%) [1] [%] |
| --- | --- | --- | --- | --- | --- | --- | --- |
|  |  |  |  |  | CN(C)c1ccc2nc3ccc(=[N+](C)C)cc-3sc2c1 [methyl blue, methylene blue] | 0.52 |  |
| 85000 | 3 | 0.85 10^5 M^−1 cm^−1 | 529 | 548 | 2,6-diiodio-BODIPY [B-1] |  | 79.5 |
| 98000 | 7 | 0.98 10^5 M^−1 cm^−1 | 661 | 689 | 2,6-diiodiodistyl-BODIPY [B-3] |  | 61.2 |
| 77000 | 5 | 0.77 10^5 M^−1 cm^−1 | 630 | 654 | 2,6-diiodiodistyl-BODIPY [B-2] |  | 69.0 |
